Consider eleven molecules from ChEMBL document CHEMBL3098005, “Structure activity relationships of fused bicyclic and urea derivatives of spirocyclic compounds as potent CCR1 antagonists” (Bioorg Med Chem Lett, 2014).

Where only a bound is given, the exact number is not on record here.

Test system in one data set: not listed separately
Put plainly: Permeability across human Caco2 cells. The class given is ADME, cell-based. As to conditions: Caco-2, read-out: permeability. (Passage across Caco-2 layers is used to estimate intestinal permeability.)
`NC(=O)Nc1ccc(F)cc1OC[C@@H](O)CN1CCC2(CC1)Cc1cc(Cl)ccc1O2`: the Papp stood at 16 ×10⁻⁶ cm/s.

The test system of a further data set is Hepatocyte. Put plainly: Metabolic stability in human hepatocytes measured per 10^6 cells. The class given is ADME, cell-based.
Conditions: not given; call rule not given here
As to `NC(=O)Nc1ccc(F)cc1OC[C@@H](O)CN1CCC2(CC1)Cc1cc(Cl)ccc1O2`, the Stability is 5.7 µL/min.

With `O=c1ccc2cccc(OC[C@@H](O)CN3CCC4(CC3)Cc3cc(Cl)ccc3O4)c2[nH]1`, the Stability entry is “Unstable”.

The target in the next data set is T1, C-C chemokine receptor type 1 (Rattus norvegicus, UniProt A6I4C9).
T1 sequence (A6I4C9 whole entry): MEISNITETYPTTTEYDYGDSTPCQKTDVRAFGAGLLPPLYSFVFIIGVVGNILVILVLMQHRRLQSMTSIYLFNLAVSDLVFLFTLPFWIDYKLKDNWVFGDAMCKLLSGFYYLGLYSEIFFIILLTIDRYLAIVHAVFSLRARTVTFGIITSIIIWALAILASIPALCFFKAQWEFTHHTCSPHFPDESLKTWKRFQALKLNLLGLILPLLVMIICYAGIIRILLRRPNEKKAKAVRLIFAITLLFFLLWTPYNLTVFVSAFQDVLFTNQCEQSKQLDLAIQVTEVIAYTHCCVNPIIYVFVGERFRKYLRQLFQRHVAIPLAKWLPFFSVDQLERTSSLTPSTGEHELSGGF
In words: Displacement of [125I]MIP-1alpha from rat CCR1.
Conditions: not given
A general note: In a radioligand displacement assay an active substance lowers the binding of a labelled ligand.
With `Cc1nc2c(OC[C@@H](O)CN3CCC4(CC3)Cc3cc(Cl)ccc3O4)cccc2s1`, the IC50 (usually the concentration needed to halve the response being measured) is on record as “Not Active”.

In the case of `Nc1nc2c(OC[C@@H](O)CN3CCC4(CC3)Cc3cc(Cl)ccc3O4)cccc2s1`, the IC50 result is “Not Active”.

Turning to `Cc1cc2c(OC[C@@H](O)CN3CCC4(CC3)Cc3cc(Cl)ccc3O4)cccc2o1`, the IC50 result is “Not Active”.

For the molecule `O=c1ccc2cccc(OC[C@@H](O)CN3CCC4(CC3)Cc3cc(Cl)ccc3O4)c2[nH]1`, the IC50 entry is “Not Active”.

As for `N[C@H](COc1cccc2c1NC(=O)CO2)CN1CCC2(CC1)Cc1cc(F)ccc1O2`, the IC50 result is given as “Not Active”.

Staying with this data set, now noted: read-out: IC50.
Take `O=c1[nH]c(=O)c2cccc(OC[C@@H](O)CN3CCC4(CC3)Cc3cc(Cl)ccc3O4)c2[nH]1`: the IC50 is above 6 µM.

For the molecule `NC(=O)Nc1ccc(F)cc1OC[C@@H](O)CN1CCC2(CC1)Cc1cc(Cl)ccc1O2`, the concentration for half-maximal inhibition (IC50) is 1.62 µM.

As to `CNC(=O)Nc1ccc(OC)cc1OC[C@@H](O)CN1CCC2(CC1)Cc1cc(F)ccc1O2`, the IC50 was found to be 1.78 µM.

As for `CNC(=O)Nc1ccc(OC)cc1OC[C@@H](O)CN1CCC2(CC1)Cc1cc(Cl)ccc1O2`, the IC50 stood at 0.447 µM.

With `COc1ccc(NC(=O)NC2CC2)c(OC[C@@H](O)CN2CCC3(CC2)Cc2cc(F)ccc2O3)c1`, the IC50 was 0.09 µM.

For `COc1ccc(NC(=O)NC2CC2)c(OC[C@@H](O)CN2CCC3(CC2)Cc2cc(Cl)ccc2O3)c1`, the IC50 turned out to be 0.05 µM.

The target of the next data set is T2, C-C chemokine receptor type 1 (Homo sapiens, UniProt P32246).
T2 sequence (P32246 whole entry): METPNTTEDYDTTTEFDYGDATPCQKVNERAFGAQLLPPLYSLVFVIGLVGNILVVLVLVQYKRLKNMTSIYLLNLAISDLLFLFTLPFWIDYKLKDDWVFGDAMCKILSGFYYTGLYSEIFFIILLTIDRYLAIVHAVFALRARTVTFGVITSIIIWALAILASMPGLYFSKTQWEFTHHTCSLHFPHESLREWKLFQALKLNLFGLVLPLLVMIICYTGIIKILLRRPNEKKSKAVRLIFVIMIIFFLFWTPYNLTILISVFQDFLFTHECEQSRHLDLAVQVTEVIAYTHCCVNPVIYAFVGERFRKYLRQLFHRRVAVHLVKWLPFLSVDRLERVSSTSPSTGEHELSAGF
In words: Displacement of [125I]MIP-1alpha from human recombinant CCR1 expressed in HEK293 cell membranes after 1.5 hrs by microbeta counting analysis.
Conditions: not given
Regarding `O=c1[nH]c(=O)c2cccc(OC[C@@H](O)CN3CCC4(CC3)Cc3cc(Cl)ccc3O4)c2[nH]1`, the IC50 worked out at 0.56 µM.

Turning to `NC(=O)Nc1ccc(F)cc1OC[C@@H](O)CN1CCC2(CC1)Cc1cc(Cl)ccc1O2`, the IC50 worked out at 0.0056 µM.

With `Cc1nc2c(OC[C@@H](O)CN3CCC4(CC3)Cc3cc(Cl)ccc3O4)cccc2s1`, the IC50 stood at 1.3 µM.

In the case of `CNC(=O)Nc1ccc(OC)cc1OC[C@@H](O)CN1CCC2(CC1)Cc1cc(F)ccc1O2`, the IC50 came out at 0.013 µM.

For the molecule `CNC(=O)Nc1ccc(OC)cc1OC[C@@H](O)CN1CCC2(CC1)Cc1cc(Cl)ccc1O2`, the IC50 was found to be 0.0045 µM.

`Nc1nc2c(OC[C@@H](O)CN3CCC4(CC3)Cc3cc(Cl)ccc3O4)cccc2s1`: the IC50 was 1.3 µM.

As for `COc1ccc(NC(=O)NC2CC2)c(OC[C@@H](O)CN2CCC3(CC2)Cc2cc(F)ccc2O3)c1`, the IC50 is 0.0022 µM.

`Cc1cc2c(OC[C@@H](O)CN3CCC4(CC3)Cc3cc(Cl)ccc3O4)cccc2o1`: the IC50 was found to be 0.16 µM.

`COc1ccc(NC(=O)NC2CC2)c(OC[C@@H](O)CN2CCC3(CC2)Cc2cc(Cl)ccc2O3)c1`: the IC50 came out at 0.0018 µM.

As for `O=c1ccc2cccc(OC[C@@H](O)CN3CCC4(CC3)Cc3cc(Cl)ccc3O4)c2[nH]1`, the IC50 came to 0.037 µM.

In the case of `N[C@H](COc1cccc2c1NC(=O)CO2)CN1CCC2(CC1)Cc1cc(F)ccc1O2`, the half-inhibitory concentration (IC50) worked out at 0.079 µM.

Test system in a further data set: not listed separately
Put plainly: Metabolic stability in human liver microsomes. It is filed as ADME. The settings on record: read-out: Stability. For orientation: Liver microsomes are a subcellular fraction often used to study metabolism.
Take `NC(=O)Nc1ccc(F)cc1OC[C@@H](O)CN1CCC2(CC1)Cc1cc(Cl)ccc1O2`: the microsomal CLint was 17 µL/min/mg.

On to `CNC(=O)Nc1ccc(OC)cc1OC[C@@H](O)CN1CCC2(CC1)Cc1cc(F)ccc1O2`, for which the microsomal CLint came out at 87.9 µL/min/mg.

Consider `CNC(=O)Nc1ccc(OC)cc1OC[C@@H](O)CN1CCC2(CC1)Cc1cc(Cl)ccc1O2`, for which the microsomal CLint came to 71.2 µL/min/mg.

In the case of `COc1ccc(NC(=O)NC2CC2)c(OC[C@@H](O)CN2CCC3(CC2)Cc2cc(F)ccc2O3)c1`, the microsomal CLint worked out at 133 µL/min/mg.

Regarding `Cc1cc2c(OC[C@@H](O)CN3CCC4(CC3)Cc3cc(Cl)ccc3O4)cccc2o1`, the microsomal CLint is 15 µL/min/mg.

`COc1ccc(NC(=O)NC2CC2)c(OC[C@@H](O)CN2CCC3(CC2)Cc2cc(Cl)ccc2O3)c1`: the microsomal CLint turned out to be 114 µL/min/mg.

In the case of `O=c1ccc2cccc(OC[C@@H](O)CN3CCC4(CC3)Cc3cc(Cl)ccc3O4)c2[nH]1`, the microsomal CLint amounted to 12.5 µL/min/mg.

As for `N[C@H](COc1cccc2c1NC(=O)CO2)CN1CCC2(CC1)Cc1cc(F)ccc1O2`, the microsomal CLint was below 10 µL/min/mg.
